Measurements as given in PubChem BioAssay (NCI).
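Dose response: 5 concentrations. Exposure: 48 h. Format: 96-well plates. Endpoint: linear interpolation; highest concentration if not reached. TGI denotes the concentration required for complete inhibition of growth.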

What was measured:
Experiment in all cases: NCI tumour cell line growth inhibition, 48 h
[1] = tested on: MDA-MB-435
[2] = tested on: U251 CNS
[3] = tested on: A498 renal
[4] = tested on: UACC-257 melanoma
[5] = tested on: RXF 393 renal
[6] = tested on: HOP-62 NSCLC
[7] = tested on: CAKI-1 renal
[8] = tested on: K-562 leukemia
[9] = tested on: NCI/ADR-RES ovarian
[10] = tested on: IGROV1 ovarian
[11] = tested on: MOLT-4 leukemia
[12] = tested on: TK-10 renal
[13] = tested on: NCI-H522 lung
[14] = tested on: NCI-H226 lung
[15] = tested on: SF-539 CNS
[16] = tested on: DU-145 prostate
[17] = tested on: KM12 colon
[18] = tested on: OVCAR-8 ovarian
[19] = tested on: A549 NSCLC
[20] = tested on: SF-295 CNS
[21] = tested on: HCC-2998 colon
[22] = tested on: CCRF-CEM leukemia
[23] = tested on: UACC-62 melanoma
[24] = tested on: HCT-15 colon
[25] = tested on: SK-OV-3 ovarian
[26] = tested on: NCI-H460 lung
[27] = tested on: LOX IMVI melanoma
[28] = tested on: HT29 colon
[29] = tested on: MALME-3M melanoma
[30] = tested on: M14 melanoma
[31] = tested on: HCT-116 colon
[32] = tested on: SK-MEL-28 melanoma
[33] = tested on: SW-620 colon
[34] = tested on: SN12C renal
[35] = tested on: ACHN renal
[36] = tested on: HS 578T breast
[37] = tested on: SK-MEL-5 melanoma
[38] = tested on: HOP-92 NSCLC
[39] = tested on: SK-MEL-2 melanoma
[40] = tested on: HL-60(TB) leukemia
[41] = tested on: OVCAR-3 ovarian
[42] = tested on: OVCAR-4 ovarian
[43] = tested on: RPMI-8226 leukemia
[44] = tested on: OVCAR-5 ovarian
[45] = tested on: T-47D breast
[46] = tested on: COLO 205 colon
[47] = tested on: SNB-19 CNS
[48] = tested on: MCF7 breast
[49] = tested on: NCI-H23 lung
[50] = tested on: PC-3 prostate
[51] = tested on: MDA-MB-231 breast
[52] = tested on: SNB-75 CNS
[53] = tested on: UO-31 renal
[54] = tested on: 786-0 renal
[55] = tested on: EKVX NSCLC
[56] = tested on: MDA-N
[57] = tested on: SF-268 CNS

With `CC1(C)SCc2nc3ccccc3n21` the TGI [1] was greater than 100 µM, the TGI [2] was greater than 100 µM and the TGI [3] was greater than 100 µM. The TGI [4] was greater than 100 µM, the TGI [5] was greater than 100 µM and the TGI [6] was greater than 100 µM. For the same compound, the TGI [7] was greater than 100 µM, the TGI [8] was greater than 100 µM and the TGI [9] was greater than 100 µM. For the same compound, the TGI [10] was greater than 100 µM, the TGI [11] was greater than 100 µM and the TGI [12] was greater than 100 µM. It also gave a TGI [13] greater than 100 µM, a TGI [14] greater than 100 µM and a TGI [15] greater than 100 µM. The TGI [16] was greater than 100 µM, the TGI [17] was greater than 100 µM and the TGI [18] was greater than 100 µM. The TGI [19] was greater than 100 µM, the TGI [20] was greater than 100 µM and the TGI [21] was greater than 100 µM. It also gave a TGI [22] greater than 100 µM, a TGI [23] greater than 100 µM and a TGI [24] greater than 100 µM. For the same compound, the TGI [25] was greater than 100 µM, the TGI [26] was greater than 100 µM and the TGI [27] was greater than 100 µM. For the same compound, the TGI [28] was greater than 100 µM, the TGI [29] was greater than 100 µM and the TGI [30] was greater than 100 µM. It also gave a TGI [31] greater than 100 µM, a TGI [32] greater than 100 µM and a TGI [33] greater than 100 µM. It also gave a TGI [34] greater than 100 µM, a TGI [35] greater than 100 µM and a TGI [36] greater than 100 µM. The TGI [37] was greater than 100 µM, the TGI [38] was greater than 100 µM and the TGI [39] was greater than 100 µM. It also gave a TGI [40] greater than 100 µM, a TGI [41] greater than 100 µM and a TGI [42] greater than 100 µM. For the same compound, the TGI [43] was greater than 100 µM, the TGI [44] was greater than 100 µM and the TGI [45] was greater than 100 µM. For the same compound, the TGI [46] was greater than 100 µM, the TGI [47] was greater than 100 µM and the TGI [48] was greater than 100 µM. The TGI [49] was greater than 100 µM, the TGI [50] was greater than 100 µM and the TGI [51] was greater than 100 µM. It also gave a TGI [52] of 3.56 µM, a TGI [53] greater than 100 µM and a TGI [54] greater than 100 µM. For the same compound, the TGI [55] was greater than 100 µM, the TGI [56] was greater than 100 µM and the TGI [57] was greater than 100 µM.
